According to ChEMBL document CHEMBL1909046, “DrugMatrix in vitro pharmacology data”:

What was measured:
[1] = biological target: T1, 5-hydroxytryptamine receptor 2C (Homo sapiens, UniProt P28335); assay: DRUGMATRIX: Serotonin (5-Hydroxytryptamine) 5-HT2C radioligand binding (ligand: [3H] Mesulergine); format: cell membranes, CHO-K1, Membrane; details: Not Active = under 50% inhibition at 10 µM
T1 sequence (P28335 whole entry): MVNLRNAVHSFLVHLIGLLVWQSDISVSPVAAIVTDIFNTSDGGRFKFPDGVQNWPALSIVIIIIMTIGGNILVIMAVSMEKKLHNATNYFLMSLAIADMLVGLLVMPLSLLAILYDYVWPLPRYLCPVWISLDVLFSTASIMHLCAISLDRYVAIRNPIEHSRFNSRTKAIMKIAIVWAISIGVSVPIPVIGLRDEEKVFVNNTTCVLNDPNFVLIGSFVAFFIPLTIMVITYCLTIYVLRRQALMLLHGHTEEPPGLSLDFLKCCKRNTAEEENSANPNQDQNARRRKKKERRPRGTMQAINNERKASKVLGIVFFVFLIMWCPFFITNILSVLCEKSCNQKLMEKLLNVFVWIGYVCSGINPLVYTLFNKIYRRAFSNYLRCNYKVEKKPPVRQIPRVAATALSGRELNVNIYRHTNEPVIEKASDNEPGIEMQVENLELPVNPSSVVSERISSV

Neutrophil elastase = biological target: T2, Neutrophil elastase (Homo sapiens, UniProt P08246); format: tissue-based;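 further: inhibition of neutrophil elastase enzyme activity, measured with a p-nitroanilide-linked peptide substrate; in other assays of this panel Not Active means under 50% inhibition at 10 µM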
T2 sequence (P08246 whole entry): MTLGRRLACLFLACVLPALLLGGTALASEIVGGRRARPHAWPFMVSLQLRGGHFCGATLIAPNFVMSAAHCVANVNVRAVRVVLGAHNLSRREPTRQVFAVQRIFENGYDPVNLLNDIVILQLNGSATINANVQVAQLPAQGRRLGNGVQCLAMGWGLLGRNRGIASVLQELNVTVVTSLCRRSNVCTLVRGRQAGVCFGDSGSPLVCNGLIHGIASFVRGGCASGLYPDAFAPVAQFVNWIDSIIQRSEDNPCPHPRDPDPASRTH

[2] = biological target: Tyrosine-protein kinase Lck (Homo sapiens, UniProt P06239); assay: DRUGMATRIX: Protein Tyrosine Kinase, LCK enzyme inhibition (substrate: Poly(Glu:Tyr)); format: cell-based, Insect cells; details: insect cells; Not Active = under 50% inhibition at 10 µM
[3] = biological target: Sigma non-opioid intracellular receptor 1 (Homo sapiens, UniProt Q99720); assay: DRUGMATRIX: Sigma1 radioligand binding (ligand: [3H] Haloperidol); format: cell membranes, Jurkat, Membrane; details: jurkat; Not Active = under 50% inhibition at 10 µM
Cannabinoid receptor 1 = Cannabinoid receptor 1 (Homo sapiens, UniProt P21554); format: cell membranes, Membrane; details: chem-1; further: in other assays of this panel Not Active means under 50% inhibition at 10 µM
[4] = DRUGMATRIX: Leukotriene, BLT (LTB4) radioligand binding (ligand: [3H]LTB4); format: cell membranes, Membrane; details: u-937; Not Active = under 50% inhibition at 10 µM
[5] = biological target: Mitogen-activated protein kinase 14 (Homo sapiens, UniProt Q16539); set-up: species or system Escherichia coli;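 further: inhibition of p38alpha enzyme activity in a biochemical kinase assay, with myelin basic protein serving as substrate; in other assays of this panel Not Active means under 50% inhibition at 10 µM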
[6] = biological target: T3, C-X-C chemokine receptor type 1 (Homo sapiens, UniProt P25024); further: in other assays of this panel Not Active means under 50% inhibition at 10 µM
T3 sequence (P25024 whole entry): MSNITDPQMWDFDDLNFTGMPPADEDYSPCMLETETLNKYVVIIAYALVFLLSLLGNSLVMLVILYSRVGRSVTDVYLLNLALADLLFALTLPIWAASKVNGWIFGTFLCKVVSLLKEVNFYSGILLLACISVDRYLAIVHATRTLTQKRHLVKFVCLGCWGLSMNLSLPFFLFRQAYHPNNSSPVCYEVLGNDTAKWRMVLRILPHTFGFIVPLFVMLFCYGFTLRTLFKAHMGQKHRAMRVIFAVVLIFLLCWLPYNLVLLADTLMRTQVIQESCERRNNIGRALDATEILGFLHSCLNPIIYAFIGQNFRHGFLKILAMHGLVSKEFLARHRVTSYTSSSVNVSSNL

[7] = DRUGMATRIX: Imidazoline I2, Central radioligand binding (ligand: [3H] Idazoxan); format: cell membranes, Rattus norvegicus, Wistar, Cerebral cortex, Membrane; details: Not Active = under 50% inhibition at 10 µM
Insulin receptor = Insulin receptor (Rattus norvegicus, UniProt P15127); format: cell membranes, Wistar, Liver, Membrane; further: in other assays of this panel Not Active means under 50% inhibition at 10 µM
[8] = DRUGMATRIX: Phorbol Ester radioligand binding (ligand: [3H] PDBu); format: cell membranes, Mus musculus, ICR, Brain, Membrane; details: Not Active = under 50% inhibition at 10 µM
[9] = biological target: Tyrosine-protein kinase Fyn (Homo sapiens, UniProt P06241); assay: biochemical; format: cell-based, Insect cells; details: insect cells
[10] = biological target: Delta-type opioid receptor (Homo sapiens, UniProt P41143); format: cell membranes, HEK293, Membrane; details: hek293; further: in other assays of this panel Not Active means under 50% inhibition at 10 µM
[11] = biological target: T4, C-X-C chemokine receptor type 2 (Homo sapiens, UniProt P25025); format: cell membranes, Membrane; details: cho-k1; further: in other assays of this panel Not Active means under 50% inhibition at 10 µM
T4 sequence (P25025 whole entry): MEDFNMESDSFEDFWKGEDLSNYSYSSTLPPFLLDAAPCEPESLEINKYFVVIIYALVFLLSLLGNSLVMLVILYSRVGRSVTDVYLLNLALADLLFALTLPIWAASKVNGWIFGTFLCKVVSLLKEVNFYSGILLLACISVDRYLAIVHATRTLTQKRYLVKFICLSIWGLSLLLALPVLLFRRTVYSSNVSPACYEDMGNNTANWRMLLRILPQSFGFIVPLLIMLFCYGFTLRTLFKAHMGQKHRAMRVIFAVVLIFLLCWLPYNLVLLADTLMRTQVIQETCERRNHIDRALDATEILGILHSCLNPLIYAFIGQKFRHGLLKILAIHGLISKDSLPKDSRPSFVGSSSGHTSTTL

[12] = biological target: Beta-1 adrenergic receptor (Homo sapiens, UniProt P08588); assay: DRUGMATRIX: Adrenergic beta1 radioligand binding (ligand: [125I] Cyanopindolol); format: cell membranes, CHO-K1, Membrane; details: cho-k1; Not Active = under 50% inhibition at 10 µM
[13] = DRUGMATRIX: Glutamate, NMDA, Phencyclidine radioligand binding (ligand: [3H] TCP); format: cell membranes, Rattus norvegicus, Wistar, Cerebral cortex, Membrane; details: Not Active = under 50% inhibition at 10 µM
[14] = DRUGMATRIX: Interleukin IL-1 radioligand binding (ligand: [125I] interleukin 1beta); format: cell membranes, Membrane; details: nih3t3; Not Active = under 50% inhibition at 10 µM
[15] = biological target: Vascular endothelial growth factor receptor 1 (Homo sapiens, UniProt P17948); format: cell-based; details: huvec; further: in other assays of this panel Not Active means under 50% inhibition at 10 µM
Vascular endothelial growth factor receptor 1, sequence (P17948 whole entry): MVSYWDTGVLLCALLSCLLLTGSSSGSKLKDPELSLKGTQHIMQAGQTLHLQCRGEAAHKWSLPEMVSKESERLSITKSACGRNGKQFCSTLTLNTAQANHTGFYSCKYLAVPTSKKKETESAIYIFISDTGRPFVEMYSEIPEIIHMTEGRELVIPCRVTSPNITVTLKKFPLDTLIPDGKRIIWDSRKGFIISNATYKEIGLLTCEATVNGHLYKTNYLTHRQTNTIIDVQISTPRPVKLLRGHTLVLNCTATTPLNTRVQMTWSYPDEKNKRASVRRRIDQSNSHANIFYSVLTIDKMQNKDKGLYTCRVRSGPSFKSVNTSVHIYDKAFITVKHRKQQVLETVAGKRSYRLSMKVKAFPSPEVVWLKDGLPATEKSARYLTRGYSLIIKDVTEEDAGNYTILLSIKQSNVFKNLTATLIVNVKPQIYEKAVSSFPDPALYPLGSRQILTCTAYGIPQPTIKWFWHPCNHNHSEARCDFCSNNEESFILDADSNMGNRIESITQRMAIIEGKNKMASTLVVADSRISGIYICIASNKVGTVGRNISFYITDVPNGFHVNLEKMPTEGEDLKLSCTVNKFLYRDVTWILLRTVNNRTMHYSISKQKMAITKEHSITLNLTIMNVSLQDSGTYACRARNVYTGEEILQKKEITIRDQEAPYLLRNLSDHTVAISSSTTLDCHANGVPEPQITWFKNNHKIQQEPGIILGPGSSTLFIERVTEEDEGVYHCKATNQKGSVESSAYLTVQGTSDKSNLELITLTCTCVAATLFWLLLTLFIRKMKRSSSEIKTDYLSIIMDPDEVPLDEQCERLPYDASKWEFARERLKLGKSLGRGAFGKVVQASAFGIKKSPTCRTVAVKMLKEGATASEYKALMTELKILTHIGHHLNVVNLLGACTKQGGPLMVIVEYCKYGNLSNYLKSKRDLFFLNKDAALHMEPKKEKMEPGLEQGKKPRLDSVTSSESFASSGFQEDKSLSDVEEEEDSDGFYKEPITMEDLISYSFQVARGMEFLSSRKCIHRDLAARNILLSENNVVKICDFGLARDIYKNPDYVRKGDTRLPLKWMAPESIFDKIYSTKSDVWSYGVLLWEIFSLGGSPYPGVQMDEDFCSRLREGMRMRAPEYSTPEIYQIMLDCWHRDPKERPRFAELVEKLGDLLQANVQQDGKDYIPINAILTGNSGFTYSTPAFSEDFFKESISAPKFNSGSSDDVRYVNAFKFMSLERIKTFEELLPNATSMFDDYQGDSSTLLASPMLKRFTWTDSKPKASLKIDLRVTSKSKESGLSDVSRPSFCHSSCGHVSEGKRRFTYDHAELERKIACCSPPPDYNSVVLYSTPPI

Beta-1 adrenergic receptor, sequence (P08588 whole entry): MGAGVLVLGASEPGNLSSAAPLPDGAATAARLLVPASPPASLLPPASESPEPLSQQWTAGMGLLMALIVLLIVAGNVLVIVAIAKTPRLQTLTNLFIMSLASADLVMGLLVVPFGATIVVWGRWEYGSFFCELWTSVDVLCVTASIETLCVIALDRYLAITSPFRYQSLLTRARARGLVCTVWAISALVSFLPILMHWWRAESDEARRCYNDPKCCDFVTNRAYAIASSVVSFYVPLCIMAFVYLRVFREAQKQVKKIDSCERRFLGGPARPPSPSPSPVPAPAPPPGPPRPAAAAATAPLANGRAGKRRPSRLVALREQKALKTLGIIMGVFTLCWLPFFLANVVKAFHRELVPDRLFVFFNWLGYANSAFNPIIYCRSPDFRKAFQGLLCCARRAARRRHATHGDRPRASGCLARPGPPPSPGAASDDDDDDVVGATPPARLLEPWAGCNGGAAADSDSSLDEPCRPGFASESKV
Tyrosine-protein kinase Fyn, sequence (P06241 whole entry): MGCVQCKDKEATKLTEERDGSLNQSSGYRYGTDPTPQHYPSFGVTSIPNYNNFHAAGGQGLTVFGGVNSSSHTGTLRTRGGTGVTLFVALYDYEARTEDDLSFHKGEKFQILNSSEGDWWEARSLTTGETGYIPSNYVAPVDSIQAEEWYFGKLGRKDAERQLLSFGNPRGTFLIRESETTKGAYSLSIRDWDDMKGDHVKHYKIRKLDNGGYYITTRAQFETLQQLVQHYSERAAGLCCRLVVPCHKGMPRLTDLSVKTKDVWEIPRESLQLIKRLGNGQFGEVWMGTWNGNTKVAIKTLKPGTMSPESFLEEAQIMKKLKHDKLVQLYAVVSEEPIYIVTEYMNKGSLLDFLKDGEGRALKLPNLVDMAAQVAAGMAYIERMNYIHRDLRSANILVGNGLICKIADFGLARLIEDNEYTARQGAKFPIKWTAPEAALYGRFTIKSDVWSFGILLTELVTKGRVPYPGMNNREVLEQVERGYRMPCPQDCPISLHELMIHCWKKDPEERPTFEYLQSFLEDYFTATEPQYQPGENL
Sigma non-opioid intracellular receptor 1, sequence (Q99720 whole entry): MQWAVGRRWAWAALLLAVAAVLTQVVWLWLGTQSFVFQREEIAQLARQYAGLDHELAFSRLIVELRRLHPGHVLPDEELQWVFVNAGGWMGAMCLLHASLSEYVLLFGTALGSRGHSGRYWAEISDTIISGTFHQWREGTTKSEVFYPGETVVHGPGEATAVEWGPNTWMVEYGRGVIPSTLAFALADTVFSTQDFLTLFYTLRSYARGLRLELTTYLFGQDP
Tyrosine-protein kinase Lck, sequence (P06239 whole entry): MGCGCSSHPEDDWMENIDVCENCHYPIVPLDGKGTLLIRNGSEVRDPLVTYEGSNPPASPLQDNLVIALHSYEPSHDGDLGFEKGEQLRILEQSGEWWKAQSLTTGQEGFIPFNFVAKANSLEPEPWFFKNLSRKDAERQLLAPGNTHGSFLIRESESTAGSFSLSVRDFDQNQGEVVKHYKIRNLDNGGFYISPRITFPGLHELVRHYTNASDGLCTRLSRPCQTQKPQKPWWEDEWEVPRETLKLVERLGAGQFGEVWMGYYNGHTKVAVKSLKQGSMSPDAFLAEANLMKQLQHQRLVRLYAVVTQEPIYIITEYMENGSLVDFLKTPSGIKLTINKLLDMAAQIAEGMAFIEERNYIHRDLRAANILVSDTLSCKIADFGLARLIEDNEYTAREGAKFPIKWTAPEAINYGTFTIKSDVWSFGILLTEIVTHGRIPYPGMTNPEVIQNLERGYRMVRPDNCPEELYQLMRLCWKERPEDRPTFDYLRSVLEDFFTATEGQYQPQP
Mitogen-activated protein kinase 14, sequence (Q16539 whole entry): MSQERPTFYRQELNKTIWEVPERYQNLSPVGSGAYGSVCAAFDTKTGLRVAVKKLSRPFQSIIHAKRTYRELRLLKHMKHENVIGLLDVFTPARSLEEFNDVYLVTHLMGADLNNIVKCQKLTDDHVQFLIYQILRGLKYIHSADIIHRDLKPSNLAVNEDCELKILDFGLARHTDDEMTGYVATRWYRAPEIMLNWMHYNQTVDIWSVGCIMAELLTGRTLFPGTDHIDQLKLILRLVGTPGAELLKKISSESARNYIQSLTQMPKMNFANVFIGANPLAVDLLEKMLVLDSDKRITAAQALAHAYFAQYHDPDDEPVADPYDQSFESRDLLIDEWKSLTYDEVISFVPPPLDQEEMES
Cannabinoid receptor 1, sequence (P21554 whole entry): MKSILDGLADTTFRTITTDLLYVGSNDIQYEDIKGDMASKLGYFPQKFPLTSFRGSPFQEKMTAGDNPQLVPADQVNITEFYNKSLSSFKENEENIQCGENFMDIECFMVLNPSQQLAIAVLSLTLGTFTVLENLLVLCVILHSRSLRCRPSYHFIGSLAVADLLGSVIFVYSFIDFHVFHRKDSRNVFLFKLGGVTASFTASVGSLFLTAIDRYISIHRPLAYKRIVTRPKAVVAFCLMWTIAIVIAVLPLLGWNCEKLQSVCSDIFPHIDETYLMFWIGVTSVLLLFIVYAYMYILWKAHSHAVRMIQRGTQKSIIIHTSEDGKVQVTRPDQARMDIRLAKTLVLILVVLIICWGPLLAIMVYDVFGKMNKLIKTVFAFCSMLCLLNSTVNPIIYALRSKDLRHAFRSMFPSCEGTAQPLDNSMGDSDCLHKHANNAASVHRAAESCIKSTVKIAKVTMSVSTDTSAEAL
Delta-type opioid receptor, sequence (P41143 whole entry): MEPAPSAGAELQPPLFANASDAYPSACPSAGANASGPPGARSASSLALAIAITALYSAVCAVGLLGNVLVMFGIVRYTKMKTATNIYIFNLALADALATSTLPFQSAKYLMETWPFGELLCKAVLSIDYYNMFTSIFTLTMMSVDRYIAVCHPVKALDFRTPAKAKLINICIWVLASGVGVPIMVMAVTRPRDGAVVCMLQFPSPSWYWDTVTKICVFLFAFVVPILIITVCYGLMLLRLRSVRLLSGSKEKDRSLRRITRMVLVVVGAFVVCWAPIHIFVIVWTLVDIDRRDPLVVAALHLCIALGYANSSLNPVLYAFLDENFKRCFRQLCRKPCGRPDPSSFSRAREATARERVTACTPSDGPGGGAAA

| SMILES | IC50 (Neutrophil elastase) | IC50 [2] | IC50 [3] | IC50 (Cannabinoid receptor 1) | IC50 [4] | Ki [4] | IC50 [5] | IC50 [6] | IC50 [7] | Ki [7] | IC50 (Insulin receptor) | IC50 [8] | Ki [8] | IC50 [9] | IC50 [10] | IC50 [11] | IC50 [12] | IC50 [13] | Ki [13] | IC50 [14] | other results |
| --- | --- | --- | --- | --- | --- | --- | --- | --- | --- | --- | --- | --- | --- | --- | --- | --- | --- | --- | --- | --- | --- |
| O=c1[nH]cc(F)c(=O)[nH]1 [FLUOROURACIL] | Not Active | Not Active | Not Active | Not Active | Not Active | Not Active | Not Active | Not Active | Not Active | Not Active | Not Active | Not Active | Not Active | Not Active | Not Active | Not Active | Not Active | Not Active | Not Active | Not Active | IC50 ([1]; cho-k1): Not Active; Ki [14]: Not Active; IC50 [15]: Not Active |
| O=C(O)c1cn(C2CC2)c2cc(N3CCNCC3)c(F)cc2c1=O [CIPROFLOXACIN] | Not Active | Not Active | Not Active | Not Active | Not Active | Not Active | Not Active | Not Active | Not Active | Not Active | Not Active | Not Active | Not Active | Not Active | Not Active | Not Active | Not Active | Not Active | Not Active | Not Active | IC50 ([1]; cho-k1): Not Active; Ki [14]: Not Active; IC50 [15]: Not Active |
| OCc1ccccc1 [BENZYL ALCOHOL] | Not Active | Not Active | Not Active | Not Active | Not Active | Not Active | Not Active | Not Active | Not Active | Not Active | Not Active | Not Active | Not Active | Not Active | Not Active | Not Active | Not Active | Not Active | Not Active | Not Active | IC50 ([1]; cho-k1): Not Active; Ki [14]: Not Active; IC50 [15]: Not Active |
| CC1(C)[C@@H](O[C@H]2O[C@H](C(=O)O)[C@@H](O)[C@H](O)[C@H]2O[C@@H]2O[C@H](C(=O)O)[C@@H](O)[C@H](O)[C@H]2O)CC[C@]2(C)[C@H]3C(=O)C=C4[C@@H]5C[C@@](C)(C(=O)O)CC[C@]5(C)CC[C@@]4(C)[C@]3(C)CC[C@@H]12 [GLYCYRRHIZIN] | Not Active | Not Active | Not Active | Not Active | Not Active | Not Active | Not Active | Not Active | Not Active | Not Active | Not Active | Not Active | Not Active | Not Active | Not Active | Not Active | Not Active | Not Active | Not Active | Not Active | IC50 ([1]; cho-k1): Not Active; Ki [14]: Not Active; IC50 [15]: Not Active |
| CCCCCCCCCc1ccc(O)cc1 [4-NONYLPHENOL] | Not Active | Not Active | Not Active | Not Active | Not Active | Not Active | Not Active | Not Active | Not Active | Not Active | Not Active | Not Active | Not Active | Not Active | Not Active | Not Active | Not Active | Not Active | Not Active | Not Active | IC50 ([1]; read-out: IC50): 2570 nM; Ki ([1]; read-out: Ki): 1350 nM; Ki [14]: Not Active; IC50 [15]: Not Active |
| CNC(=O)Oc1ccc2c(c1)[C@]1(C)CCN(C)[C@@H]1N2C [PHYSOSTIGMINE] | Not Active | Not Active | Not Active | Not Active | Not Active | Not Active | Not Active | Not Active | Not Active | Not Active | Not Active | Not Active | Not Active | Not Active | Not Active | Not Active | Not Active | Not Active | Not Active | Not Active | IC50 ([1]; cho-k1): Not Active; Ki [14]: Not Active; IC50 [15]: Not Active |
| CCCC[C@@H](CC)COC(=O)c1ccccc1C(=O)OC[C@@H](CC)CCCC [BIS(2-ETHYLHEXYL)PHTHALATE] | Not Active | Not Active | Not Active | Not Active | Not Active | Not Active | Not Active | Not Active | Not Active | Not Active | Not Active | Not Active | Not Active | Not Active | Not Active | Not Active | Not Active | Not Active | Not Active | Not Active | IC50 ([1]; cho-k1): Not Active; Ki [14]: Not Active; IC50 [15]: Not Active |
